From patent US8076487B2, “Pyridone derivative and herbicide” (Kumiai Chemical Industry Co., Ltd., priority 2006, dated 2011)

Tests used:
Type in all cases: in vivo
[1] = test system: Japanese bulrush (Scirpus juncoides Roxb.); assay: Test Example 1: herbicidal effect by soil application to paddy field; settings: paddy field soil application; active ingredient 1,000 g per 1 hectare; wettable powder added dropwise to water surface the day after sowing; examined on the 21st day after application
Outline: (§1)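 Under greenhouse conditions, seeds sown on puddled paddy soil in 100 cm2 pots under 3 cm of standing water received the test compound; injury was assessed with a standard scoring scheme three weeks (day 21) after treatment.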

[2] = test system: early watergrass (Echinochloa oryzicola Vasing); assay: as above; settings: paddy field soil application; active ingredient 1,000 g per 1 hectare; wettable powder added dropwise to water surface the day after sowing; examined on the 21st day after application
Outline: as §1

[3] = test system: heartshape false pickerelweed (Monochoria vaginalis (Burm.f.) C.Presl); assay: as above; settings: paddy field soil application; active ingredient 1,000 g per 1 hectare; wettable powder added dropwise to water surface the day after sowing; examined on the 21st day after application
Outline: as §1

[4] = test system: barnyardgrass (Echinochloa crus-galli (L.) P. Beauv. var. crus-galli); assay: Test Example 3: herbicidal effect by application to upland field (foliage treatment); settings: foliage treatment, 1,000 g active ingredient per 1 hectare, 14th day after application, greenhouse
Experimental: (§2) [table] Test Example 3 Test on Herbicidal Effect by Application to Upland Field In a 80 cm2 plastic pot, field soil was filled. Seeds of barnyardgrass (Echinochloa crus-galli (L.) P. Beauv. var. crus-galli), green foxtail (Setaria viridis (L.) P. Beauv.), velvetleaf (Abutilon theophrasti medicus), and slender amaranth (Amaranthus viridis L.) were sown and allowed to grow for two weeks in a greenhouse. Thereafter, the wettable powder prepared according to Formulation Example 1 was diluted in water and a 1,000 liter equivalent amount per 1 hectare so that the active ingredient becomes 1,000 g per 1 hectare was sprayed using a small sprayer from a top of the plants through its entire body for foliage treatment. Then, on the 14th day after the application to the plants grew in a greenhouse, the herbicidal effect was examined in accordance with a standard shown in Table 34.

[5] = test system: green foxtail (Setaria viridis (L.) P. Beauv.); assay: as above; settings: foliage treatment, 1,000 g active ingredient per 1 hectare, 14th day after application, greenhouse
Experimental: as §2

[6] = test system: slender amaranth (Amaranthus viridis L.); assay: as above; settings: foliage treatment, 1,000 g active ingredient per 1 hectare, 14th day after application, greenhouse
Experimental: as §2

[7] = test system: velvetleaf (Abutilon theophrasti medicus); assay: as above; settings: foliage treatment, 1,000 g active ingredient per 1 hectare, 14th day after application, greenhouse
Experimental: as §2

SMILES	herbicidal effect, Scirpus juncoides Roxb. [1]	herbicidal effect, Echinochloa oryzicola Vasing [2]	herbicidal effect, Monochoria vaginalis (Burm. f.) C. Presl [3]	herbicidal effect, Barnyardgrass [4]	herbicidal effect, Green Foxtail [5]	herbicidal effect, Slender Amaranth [6]	herbicidal effect, Velvetleaf [7]
CCC(C)Nn1c(C(F)(F)F)ccc(C(=O)C2=C(O)CCCC2=O)c1=O (stereo not drawn) [I-163]	5 (90% or more of herbicidal effect and crop phytotoxicity)	5 (90% or more of herbicidal effect and crop phytotoxicity)	5 (90% or more of herbicidal effect and crop phytotoxicity)	5 (90% or more of herbicidal effect and crop phytotoxicity)	5 (90% or more of herbicidal effect and crop phytotoxicity)	5 (90% or more of herbicidal effect and crop phytotoxicity)	5 (90% or more of herbicidal effect and crop phytotoxicity)
CCN(CC)n1c(C(F)(F)F)ccc(C(=O)C2=C(O)CCCC2=O)c1=O [I-172]	5 (90% or more of herbicidal effect and crop phytotoxicity)	5 (90% or more of herbicidal effect and crop phytotoxicity)	5 (90% or more of herbicidal effect and crop phytotoxicity)	5 (90% or more of herbicidal effect and crop phytotoxicity)	5 (90% or more of herbicidal effect and crop phytotoxicity)	5 (90% or more of herbicidal effect and crop phytotoxicity)	5 (90% or more of herbicidal effect and crop phytotoxicity)
CCCN(CCC)n1c(C(F)(F)F)ccc(C(=O)C2=C(O)CCCC2=O)c1=O [I-173]	5 (90% or more of herbicidal effect and crop phytotoxicity)	5 (90% or more of herbicidal effect and crop phytotoxicity)	5 (90% or more of herbicidal effect and crop phytotoxicity)	4 (70 to less than 90% of herbicidal effect and crop phytotoxicity)	5 (90% or more of herbicidal effect and crop phytotoxicity)	4 (70 to less than 90% of herbicidal effect and crop phytotoxicity)	5 (90% or more of herbicidal effect and crop phytotoxicity)
COCCN(C)n1c(C(F)(F)F)ccc(C(=O)C2=C(O)CCCC2=O)c1=O [I-176]	5 (90% or more of herbicidal effect and crop phytotoxicity)	5 (90% or more of herbicidal effect and crop phytotoxicity)	5 (90% or more of herbicidal effect and crop phytotoxicity)	5 (90% or more of herbicidal effect and crop phytotoxicity)	5 (90% or more of herbicidal effect and crop phytotoxicity)	5 (90% or more of herbicidal effect and crop phytotoxicity)	5 (90% or more of herbicidal effect and crop phytotoxicity)
COC(=O)Nn1c(C(F)(F)F)ccc(C(=O)C2=C(O)CCCC2=O)c1=O [I-189]	5 (90% or more of herbicidal effect and crop phytotoxicity)	5 (90% or more of herbicidal effect and crop phytotoxicity)	5 (90% or more of herbicidal effect and crop phytotoxicity)	4 (70 to less than 90% of herbicidal effect and crop phytotoxicity)	4 (70 to less than 90% of herbicidal effect and crop phytotoxicity)	5 (90% or more of herbicidal effect and crop phytotoxicity)	5 (90% or more of herbicidal effect and crop phytotoxicity)
CCN(C(=O)OC(C)(C)C)n1c(C(F)(F)F)ccc(C(=O)C2=C(O)CCCC2=O)c1=O [I-195]	5 (90% or more of herbicidal effect and crop phytotoxicity)	5 (90% or more of herbicidal effect and crop phytotoxicity)	5 (90% or more of herbicidal effect and crop phytotoxicity)	5 (90% or more of herbicidal effect and crop phytotoxicity)	4 (70 to less than 90% of herbicidal effect and crop phytotoxicity)	3 (50 to less than 70% of herbicidal effect and crop phytotoxicity)	5 (90% or more of herbicidal effect and crop phytotoxicity)
CCn1c(C(F)F)ccc(C(=O)C2=C(O)CCCC2=O)c1=O [I-222]	5 (90% or more of herbicidal effect and crop phytotoxicity)	5 (90% or more of herbicidal effect and crop phytotoxicity)	5 (90% or more of herbicidal effect and crop phytotoxicity)	5 (90% or more of herbicidal effect and crop phytotoxicity)	4 (70 to less than 90% of herbicidal effect and crop phytotoxicity)	5 (90% or more of herbicidal effect and crop phytotoxicity)	5 (90% or more of herbicidal effect and crop phytotoxicity)
Cc1ccc(C(=O)C2=C(O)CCCC2=O)c(=O)n1-c1ccccc1 [I-229]	4 (70 to less than 90% of herbicidal effect and crop phytotoxicity)	4 (70 to less than 90% of herbicidal effect and crop phytotoxicity)	5 (90% or more of herbicidal effect and crop phytotoxicity)	4 (70 to less than 90% of herbicidal effect and crop phytotoxicity)	4 (70 to less than 90% of herbicidal effect and crop phytotoxicity)	5 (90% or more of herbicidal effect and crop phytotoxicity)	5 (90% or more of herbicidal effect and crop phytotoxicity)
CCCc1ccc(C(=O)C2=C(O)CCCC2=O)c(=O)n1-c1ccccc1 [I-231]	5 (90% or more of herbicidal effect and crop phytotoxicity)	5 (90% or more of herbicidal effect and crop phytotoxicity)	5 (90% or more of herbicidal effect and crop phytotoxicity)	4 (70 to less than 90% of herbicidal effect and crop phytotoxicity)	3 (50 to less than 70% of herbicidal effect and crop phytotoxicity)	4 (70 to less than 90% of herbicidal effect and crop phytotoxicity)	4 (70 to less than 90% of herbicidal effect and crop phytotoxicity)
Cn1c(C(F)(F)F)ccc(C(=O)C2=C(O)CC(C)(C)CC2=O)c1=O [II-3]	5 (90% or more of herbicidal effect and crop phytotoxicity)	5 (90% or more of herbicidal effect and crop phytotoxicity)	5 (90% or more of herbicidal effect and crop phytotoxicity)	3 (50 to less than 70% of herbicidal effect and crop phytotoxicity)	4 (70 to less than 90% of herbicidal effect and crop phytotoxicity)	5 (90% or more of herbicidal effect and crop phytotoxicity)	5 (90% or more of herbicidal effect and crop phytotoxicity)
CC1CC(C)C(O)=C(C(=O)c2ccc(C(F)(F)F)n(C)c2=O)C1=O (stereo not drawn) [II-7]	5 (90% or more of herbicidal effect and crop phytotoxicity)	5 (90% or more of herbicidal effect and crop phytotoxicity)	5 (90% or more of herbicidal effect and crop phytotoxicity)	4 (70 to less than 90% of herbicidal effect and crop phytotoxicity)	4 (70 to less than 90% of herbicidal effect and crop phytotoxicity)	5 (90% or more of herbicidal effect and crop phytotoxicity)	5 (90% or more of herbicidal effect and crop phytotoxicity)
CCn1c(C(F)(F)F)ccc(C(=O)C2=C(O)C3CCC(C3)C2=O)c1=O (stereo not drawn) [III-2]	5 (90% or more of herbicidal effect and crop phytotoxicity)	5 (90% or more of herbicidal effect and crop phytotoxicity)	5 (90% or more of herbicidal effect and crop phytotoxicity)	5 (90% or more of herbicidal effect and crop phytotoxicity)	5 (90% or more of herbicidal effect and crop phytotoxicity)	5 (90% or more of herbicidal effect and crop phytotoxicity)	5 (90% or more of herbicidal effect and crop phytotoxicity)
